In one data set the test system is Wnt Pathway. Put plainly: Wnt pathway modulatory activity, Osteo bCat. In kind it is cell-based. From the text: (§1) Selected compounds of this invention were screened for K-Ras Wnt synthetic lethal, anti-angiogenic activity, Wnt pathway modulatory activity, insulin and GLP-1 secretion modulatory activity, GPR119 receptor agonist activity, mGlu2R antagonist activity, CGRP receptor antagonist activity, Apelin receptor agonist activity and hexokinase 2 inhibitory activity using the PD^2 and TD^2 Screening Panel (Eli Lilly & Company). See Lee, et al. (2011) J. Biomol. Screen. 16:588-602.

A further data set addresses T1, hHK2 (Homo sapiens, UniProt P52789).
T1 sequence (P52789 1-917): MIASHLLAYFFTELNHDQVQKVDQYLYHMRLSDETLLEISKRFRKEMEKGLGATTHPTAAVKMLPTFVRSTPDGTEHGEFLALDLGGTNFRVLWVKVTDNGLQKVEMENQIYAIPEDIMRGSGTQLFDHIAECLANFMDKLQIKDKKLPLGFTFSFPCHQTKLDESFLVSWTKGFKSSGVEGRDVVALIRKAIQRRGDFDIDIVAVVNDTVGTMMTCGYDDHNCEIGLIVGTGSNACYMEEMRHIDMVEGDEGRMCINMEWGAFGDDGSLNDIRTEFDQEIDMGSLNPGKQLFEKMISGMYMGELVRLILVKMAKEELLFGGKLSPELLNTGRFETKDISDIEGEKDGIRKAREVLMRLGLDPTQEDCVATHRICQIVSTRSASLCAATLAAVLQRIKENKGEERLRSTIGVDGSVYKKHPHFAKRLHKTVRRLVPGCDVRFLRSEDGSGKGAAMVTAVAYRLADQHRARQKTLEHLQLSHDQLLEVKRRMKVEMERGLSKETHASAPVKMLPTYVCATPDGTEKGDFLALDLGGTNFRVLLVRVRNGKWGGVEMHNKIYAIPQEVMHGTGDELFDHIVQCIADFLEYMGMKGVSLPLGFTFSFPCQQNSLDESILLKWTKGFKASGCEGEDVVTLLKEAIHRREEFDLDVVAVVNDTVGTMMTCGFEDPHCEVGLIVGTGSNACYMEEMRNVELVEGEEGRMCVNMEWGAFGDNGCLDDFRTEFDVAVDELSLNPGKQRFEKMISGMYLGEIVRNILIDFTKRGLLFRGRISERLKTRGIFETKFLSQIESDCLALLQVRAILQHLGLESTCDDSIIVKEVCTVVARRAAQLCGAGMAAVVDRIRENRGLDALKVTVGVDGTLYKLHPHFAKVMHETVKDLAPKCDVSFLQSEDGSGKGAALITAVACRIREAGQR
Put plainly: Hexokinase 2 inhibitor, hHK2 ADP-FP. Type of data set: biochemical.
From the text: as §1

A further data set concerns RKO. The experiment in a line: K-Ras Wnt synthetic lethal, RKO KrasSL. Conditions: Homo sapiens, average of three independent experiments, read-out: RKO KrasSL % Inhibit. Type of data set: cell-based.
From the text: as §1

The target in a further data set is hCGRP1 (Homo sapiens, UniProt O60894+Q16602). The experiment in a line: CGRP receptor antagonist, hCGRP1 antagonism. Type of data set: cell-based.
From the text: as §1

Another data set concerns SNU-C1. The experiment in a line: K-Ras Wnt synthetic lethal, SNU-C1 KrasSL. Type of data set: cell-based. Conditions: Homo sapiens, read-out: SNU-C1 KrasSL % Inhibit.
From the text: as §1

Another data set relates to Insulin Secretion. Put plainly: Insulin secretion, Secretion Hi Gluc. In kind it is cell-based.
From the text: as §1

A further data set deals with hMGLUR2 (Homo sapiens, UniProt Q14416). The experiment in a line: mGlu2R antagonist, hMGLUR2. In kind it is cell-based.
From the text: as §1

The test system of a further data set is Pituitary Cells. The experiment in a line: Secondary assay, pituitary cells growth hormone secretion. The conditions noted are these: @ 3.3 μM. In kind it is cell-based. Here is the method: (§2) In light of the above results, additional compounds (Table 7) were prepared and phenotypic assays were carried out using hNCI-H716 and mSTC-1 cell lines to monitor GLP-1 secretion (single point (SP) and concentration response curves (CRC)) (Table 8), as well as a secondary assay with pituitary cells (Table 9).

The test system of the next data set is HCT116. Put plainly: K-Ras Wnt synthetic lethal, HCT116 KrasSL. Type of data set: cell-based. Conditions: Homo sapiens, HCT-116, read-out: HCT116 KrasSL % Inhibit.
From the text: as §1

Data set [1] deals with hNCI-H716. The experiment in a line: hNCI-H716 GLP-1 secretion. In kind it is cell-based.
From the text: as §1, §2

The test system of another data set is Co1o320. Put plainly: K-Ras Wnt synthetic lethal, Co1o320 KrasSL. Conditions: read-out: Co1o320 KrasSL % Inhibit. Type of data set: cell-based.
From the text: as §1

The target of a further data set is T2, hApelin (Homo sapiens, UniProt P35414).
T2 sequence (P35414 1-380): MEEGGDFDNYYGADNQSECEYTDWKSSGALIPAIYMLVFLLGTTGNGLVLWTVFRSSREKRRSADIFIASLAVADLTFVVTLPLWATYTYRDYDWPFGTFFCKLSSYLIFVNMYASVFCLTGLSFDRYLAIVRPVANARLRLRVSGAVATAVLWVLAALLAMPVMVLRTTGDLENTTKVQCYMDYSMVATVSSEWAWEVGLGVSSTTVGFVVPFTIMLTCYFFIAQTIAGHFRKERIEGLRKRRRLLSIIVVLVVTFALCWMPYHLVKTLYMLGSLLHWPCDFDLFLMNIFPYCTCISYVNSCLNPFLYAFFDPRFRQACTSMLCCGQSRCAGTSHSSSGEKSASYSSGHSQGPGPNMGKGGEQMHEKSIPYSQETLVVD
Put plainly: Apelin receptor agonist, hApelin agonism. Type of data set: cell-based. The conditions noted are these: @ 30 μM.
From the text: as §1

The next data set addresses T3, hGPR119 (Homo sapiens, UniProt Q8TDV5).
T3 sequence (Q8TDV5 1-335): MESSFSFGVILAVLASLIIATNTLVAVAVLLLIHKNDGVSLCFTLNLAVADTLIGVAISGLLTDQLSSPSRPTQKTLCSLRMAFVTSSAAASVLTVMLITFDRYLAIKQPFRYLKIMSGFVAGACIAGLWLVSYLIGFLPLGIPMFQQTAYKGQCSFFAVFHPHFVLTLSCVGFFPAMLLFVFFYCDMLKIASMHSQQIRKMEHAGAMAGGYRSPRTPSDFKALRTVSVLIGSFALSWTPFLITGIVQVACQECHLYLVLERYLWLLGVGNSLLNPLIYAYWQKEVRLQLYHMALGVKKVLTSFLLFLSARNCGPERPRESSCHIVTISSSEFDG
Put plainly: GPR119 receptor agonist, hGPR119 agonism. Type of data set: cell-based. Conditions: @ 10 μM.
From the text: as §1

The test system of another data set is Angio Tube Area. The experiment in a line: Anti-angiogenic activity, Angio Tube Area. Type of data set: cell-based. Conditions: read-out: Angio Tube Area % Inhibit.
From the text: as §1

A further data set has as its system mSTC-1. Put plainly: mSTC-1 GLP-1 secretion. In kind it is cell-based. Conditions: concentration response curve, read-out: Primary CRC (EC50, μM) mSTC. The procedure:
as §2

The test system of the next data set is GLP-1 (X-36 amide). The experiment in a line: Plasma GLP-1 response to oral compound in mice. Conditions: oral 100 mg/kg, plasma 30 minutes post-dose. Type of data set: in vivo, Mice (male C57BL/6). Here is the method:
(§3) Mice (male C57BL/6, 8-10 weeks of age) were fasted overnight by being placed in a clean cage without food. The next day, all mice were weighed and assigned to groups of similar body weights. Test compounds were formulated in 1% HEC, 0.25% TWEEN 80, 0.05% antifoam (vehicle control). Compounds 11ls and llu were orally dosed (100 mg/kg) and cardiac sticks were done on CO2 euthanized mice at 30 minutes post-dose. Blood (500+μL whole blood) from the cardiac stick was placed in chilled EDTA-plasma tubes with inhibitors, DPP4 inhibitor (5 μL/500 μL blood) and aprotinin (bovine lung, […]/500 μL blood), and stored on ice. Plasma was separated by centrifugation and aliquoted for compound exposure to total GIP and GLP-1 (X-36 amide). Plates for compound exposure were analyzed for absorption, distribution, metabolism, and excretion, while conventional kits were used for GLP-1 (x-36) amide (Mesoscale) and GIP (Millipore) analyses.

Data set [2] can be described thus: Plasma compound exposure after oral dosing in mice. Type of data set: in vivo, Mice (male C57BL/6). Conditions: oral 100 mg/kg, 30 minutes post-dose. The procedure: as §3
The subject of another data set is GIP. The experiment in a line: Plasma GIP response to oral compound in mice. In kind it is in vivo, Mice (male C57BL/6). Conditions: oral 100 mg/kg, plasma 30 minutes post-dose. Here is the method: as §3
For data set [3], the system named is hNCI-H716. Put plainly: hNCI basal LDH secretion. In kind it is cell-based. The conditions noted are these: read-out: Primary CRC (EC50, μM) hNCI Basal. The procedure: as §2

“And” between values parts separate entries of the source, which are not always exact repeats. Equal entries are not always repeated.

hMGLUR2, sequence (Q14416 19-872): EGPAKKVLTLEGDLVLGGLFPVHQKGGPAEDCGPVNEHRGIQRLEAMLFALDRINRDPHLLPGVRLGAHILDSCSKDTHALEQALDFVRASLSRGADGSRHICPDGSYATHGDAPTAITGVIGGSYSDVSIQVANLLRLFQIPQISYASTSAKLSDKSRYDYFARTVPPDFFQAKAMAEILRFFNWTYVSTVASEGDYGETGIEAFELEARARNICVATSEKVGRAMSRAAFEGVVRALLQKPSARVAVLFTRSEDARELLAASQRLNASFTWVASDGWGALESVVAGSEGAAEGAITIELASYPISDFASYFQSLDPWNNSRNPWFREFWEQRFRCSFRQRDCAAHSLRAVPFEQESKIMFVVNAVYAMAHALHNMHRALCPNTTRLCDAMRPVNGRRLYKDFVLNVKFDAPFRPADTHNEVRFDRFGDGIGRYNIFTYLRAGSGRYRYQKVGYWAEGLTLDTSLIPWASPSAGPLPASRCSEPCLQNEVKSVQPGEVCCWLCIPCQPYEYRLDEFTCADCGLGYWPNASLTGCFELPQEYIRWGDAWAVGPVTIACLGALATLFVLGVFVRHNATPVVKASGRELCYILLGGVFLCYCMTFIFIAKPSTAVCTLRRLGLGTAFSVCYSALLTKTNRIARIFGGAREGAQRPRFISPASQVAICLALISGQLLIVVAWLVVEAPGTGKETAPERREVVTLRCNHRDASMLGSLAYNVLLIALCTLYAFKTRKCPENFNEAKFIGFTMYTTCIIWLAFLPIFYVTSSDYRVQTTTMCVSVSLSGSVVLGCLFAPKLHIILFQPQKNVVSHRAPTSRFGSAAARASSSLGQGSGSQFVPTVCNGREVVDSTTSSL
hCGRP1, sequence (Q16602 23-461): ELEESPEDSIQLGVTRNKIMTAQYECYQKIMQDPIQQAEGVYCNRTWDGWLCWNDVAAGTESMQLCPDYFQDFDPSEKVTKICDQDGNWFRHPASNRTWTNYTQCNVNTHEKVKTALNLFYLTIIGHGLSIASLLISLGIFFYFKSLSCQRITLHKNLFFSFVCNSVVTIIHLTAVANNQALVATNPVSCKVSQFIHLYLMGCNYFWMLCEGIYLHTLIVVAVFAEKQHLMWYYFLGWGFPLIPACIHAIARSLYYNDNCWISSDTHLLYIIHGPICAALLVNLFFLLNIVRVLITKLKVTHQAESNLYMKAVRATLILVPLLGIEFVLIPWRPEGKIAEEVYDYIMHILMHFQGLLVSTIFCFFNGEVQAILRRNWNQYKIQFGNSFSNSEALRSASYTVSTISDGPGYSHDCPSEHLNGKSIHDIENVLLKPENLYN
hCGRP1, sequence (O60894 27-148 partner): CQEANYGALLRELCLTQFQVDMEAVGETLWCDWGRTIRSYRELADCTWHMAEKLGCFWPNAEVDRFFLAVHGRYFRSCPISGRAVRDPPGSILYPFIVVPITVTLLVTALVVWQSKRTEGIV

For orientation: EC50 means the concentration that produces a half-maximal response. With `CC1(C)c2c([nH]c3ccc(Br)cc23)C2C=CC1C2` (stereo not drawn) [Compound 11t], the “Osteo bCat % Stimulation” value is 1.8% with Wnt Pathway (@ 2 μM) and 5.5% in the data set on Wnt Pathway (@ 10 μM). Moreover, the inhibition at 20 µM against hHK2 came out at 3.2%; in the data set on RKO (@ 20 μM), 102%; in the data set on SNU-C1 (@ 20 μM) it was 107%; in the data set with HCT116 (@ 20 μM), 104%; in the data set with Co1o320 (@ 20 μM), 152%. Moreover, the inhibition at 0.2 µM in the data set with RKO (@ 0.2 μM) is -5.8%; in the data set with SNU-C1 (@ 0.2 μM), -1%; with HCT116 (@ 0.2 μM), 5.3%; in the data set with Co1o320 (@ 0.2 μM), -6.6%. For the same compound, the inhibition at 2 µM with RKO (@ 2 μM) is 17.6%; in the data set with SNU-C1 (@ 2 μM), -19.1%; with HCT116 (@ 2 μM), -11.5%; in the data set with Co1o320 (@ 2 μM) it was 23.1%; in the data set on Angio Tube Area (@ 2 μM) it was 8%. Moreover, the inhibition at 30 µM on hCGRP1 turned out to be 67.7%. In addition, the entries for the “Secretion Hi Gluc % Stimulation” value in the data set on Insulin Secretion (@ 2 μM) and in the data set on Insulin Secretion (@ 10 μM) were 0.1% and 19.1%, respectively. Besides, on hMGLUR2, the inhibition at 50 µM is -19.7%. In the data set with Pituitary Cells, the “Pituitary Cells (Growth Hormone Secretion, % Stimulation)” value was −12.6% and −7.1%. Also, the activation at 2 µM with hNCI-H716 [1] (2 μM, GLP-1 secretion, single point, read-out: Primary SP hNCI (% Stim.)) amounted to 0%. Further, in the data set with hNCI-H716 [1] (20 μM, GLP-1 secretion, single point, read-out: Primary SP hNCI (% Stim.)), the activation at 20 µM came out at 35.2%. The “hNCI GLP-1 Secretion % Stimulation” value in the data set on hNCI-H716 [1] (@ 2 μM) stood at 0%; in the data set with hNCI-H716 [1] (@ 20 μM), 35.2%. Moreover, the half-maximal effective concentration (EC50) is 29.1 µM and 17.6 µM and 16.4 µM with hNCI-H716 [1] (GLP-1 secretion, concentration response curve, read-out: Primary CRC (EC50, μM) hNCI); 29.1 µM in the data set with hNCI-H716 [1] (average of three independent experiments, read-out: hNCI GLP-1 Secretion EC50); 29 µM in the data set on hNCI-H716 [1] (secretion and/or production of GLP-1, read-out: EC50 values (Table 6)); 2.4 µM and 4.1 µM and 2.2 µM with mSTC-1. Further, at hApelin, the “hApelin agonism % Stimulation” value is listed as −52.8%. Moreover, the “hGPR119 agonism % Stimulation” value at hGPR119 is recorded as −2.3%. Also, in the data set with Angio Tube Area (@ 10 μM), the inhibition at 10 µM came to 38%.

For the compound `CC1(C)c2c([nH]c3ccc(I)cc23)C2C=CC1C2` (stereo not drawn) [Compound 11u], the “Avg. GLP-1 (pg/mL) ±SEM” value in the data set with GLP-1 (X-36 amide) amounted to 7.66 ± 0.89 pg/mL. Further, the “mean (±standard deviation) plasma levels” value in [2] stood at 201.6 ± 37.24 ng/mL. Moreover, in the data set with GIP, the “Avg. GIP (pg/mL) ±SEM” value came to 26.23 ± 10.35 pg/mL. Also, the “Primary SP hNCI (% Stim.)” value in the data set with hNCI-H716 [1] (2 μM, GLP-1 secretion, single point) is listed as 0%; in the data set with hNCI-H716 [1] (20 μM, GLP-1 secretion, single point) it was 57%. Moreover, the EC50 with hNCI-H716 [3] is 35.8 µM; with mSTC-1, 2 µM and 3.2 µM.
